Assay results: US9529005B2, “Modulating bacterial MAM polypeptides in pathogenic disease” (priority 2011, dated 2016)
Values after ≈ are worked out from the molar mass of the structure shown. Like-named read-outs stand apart in the source and are kept apart here.

What was measured:
Assay in all cases: Antimicrobial susceptibility testing (MIC), BD Phoenix Automated Microbiology System; on interpretation of the result: key: R, resistant; I, intermediate; S, susceptible; R*: *As a rule, when ESBL is detected, an interpretation of susceptible or intermediate for penicillins, cephalosporins and aztreonam is reported as resistant
Assay type in all cases: cell-based
Pseudomonas aeruginosa = conditions: for MIC: Pseudomonas aeruginosa
Acinetobacter baumannii = conditions: for MIC: Acinetobacter baumannii
Escherichia coli = conditions: for MIC: Escherichia coli
Klebsiella ssp. = conditions: for MIC: Klebsiella
[1] = Pseudomonas aeruginosa isolate 1
[2] = Pseudomonas aeruginosa isolate 2
[3] = Pseudomonas aeruginosa isolate 3
[4] = Pseudomonas aeruginosa isolate 4
[5] = Pseudomonas aeruginosa isolate 5
[6] = Acinetobacter baumannii isolate 1
[7] = Acinetobacter baumannii isolate 2
[8] = Acinetobacter baumannii isolate 3
[9] = Acinetobacter baumannii isolate 4
[10] = Acinetobacter baumannii isolate 5

Compound | interpretation of the result (Pseudomonas aeruginosa; [1]) | interpretation of the result (Pseudomonas aeruginosa; [2]) | interpretation of the result (Pseudomonas aeruginosa; [3]) | interpretation of the result (Pseudomonas aeruginosa; [4]) | interpretation of the result (Pseudomonas aeruginosa; [5]) | interpretation of the result (Acinetobacter baumannii; [6]) | interpretation of the result (Acinetobacter baumannii; [7]) | interpretation of the result (Acinetobacter baumannii; [8]) | interpretation of the result (Acinetobacter baumannii; [9]) | interpretation of the result (Acinetobacter baumannii; [10]) | interpretation of the result (Escherichia coli; Escherichia coli isolate 1) | interpretation of the result (Escherichia coli; Escherichia coli isolate 2) | interpretation of the result (Escherichia coli; Escherichia coli isolate 3) | interpretation of the result (Escherichia coli; Escherichia coli isolate 4) | interpretation of the result (Escherichia coli; Escherichia coli isolate 5) | interpretation of the result (Klebsiella ssp.; Klebsiella ssp. isolate 1) | interpretation of the result (Klebsiella ssp.; Klebsiella ssp. isolate 2) | interpretation of the result (Klebsiella ssp.; Klebsiella ssp. isolate 3) | interpretation of the result (Klebsiella ssp.; Klebsiella ssp. isolate 4) | interpretation of the result (Klebsiella ssp.; Klebsiella ssp. isolate 5) | further results
CN(C)[C@@H]1C(O)=C(C(N)=O)C(=O)[C@@]2(O)C(O)=C3C(=O)c4c(O)cccc4[C@@](C)(O)[C@H]3C[C@@H]12 [Tet., Tetracycline] | R | R | R | R | R | R | S | R | R | I | R | S | R | R | R | R | R | R | R | R | MIC (Pseudomonas aeruginosa; Pseudomonas aeruginosa isolate 1, read-out: minimal inhibiting concentration): > 8 µg/mL; MIC (Pseudomonas aeruginosa; Pseudomonas aeruginosa isolate 2, read-out: minimal inhibiting concentration): > 8 µg/mL; MIC (Pseudomonas aeruginosa; Pseudomonas aeruginosa isolate 3, read-out: minimal inhibiting concentration): > 8 µg/mL; MIC (Pseudomonas aeruginosa; Pseudomonas aeruginosa isolate 4, read-out: minimal inhibiting concentration): > 8 µg/mL; MIC (Pseudomonas aeruginosa; Pseudomonas aeruginosa isolate 5, read-out: minimal inhibiting concentration): > 8 µg/mL; MIC (Acinetobacter baumannii; Acinetobacter baumannii isolate 1, read-out: minimal inhibiting concentration): > 8 µg/mL; MIC (Acinetobacter baumannii; Acinetobacter baumannii isolate 2, read-out: minimal inhibiting concentration): 4 µg/mL (≈ 9 µM); MIC (Acinetobacter baumannii; Acinetobacter baumannii isolate 3, read-out: minimal inhibiting concentration): > 8 µg/mL; MIC (Acinetobacter baumannii; Acinetobacter baumannii isolate 4, read-out: minimal inhibiting concentration): > 8 µg/mL; MIC (Acinetobacter baumannii; Acinetobacter baumannii isolate 5, read-out: minimal inhibiting concentration): 8 µg/mL (≈ 18 µM); MIC (Escherichia coli; Escherichia coli isolate 1, read-out: minimal inhibiting concentration): > 8 µg/mL; MIC (Escherichia coli; Escherichia coli isolate 2, read-out: minimal inhibiting concentration): ≤ 2 µg/mL; MIC (Escherichia coli; Escherichia coli isolate 3, read-out: minimal inhibiting concentration): > 8 µg/mL; MIC (Escherichia coli; Escherichia coli isolate 4, read-out: minimal inhibiting concentration): > 8 µg/mL; MIC (Escherichia coli; Escherichia coli isolate 5, read-out: minimal inhibiting concentration): > 8 µg/mL; MIC (Klebsiella ssp.; Klebsiella ssp. isolate 1, read-out: minimal inhibiting concentration): > 8 µg/mL; MIC (Klebsiella ssp.; Klebsiella ssp. isolate 2, read-out: minimal inhibiting concentration): > 8 µg/mL; MIC (Klebsiella ssp.; Klebsiella ssp. isolate 3, read-out: minimal inhibiting concentration): > 8 µg/mL; MIC (Klebsiella ssp.; Klebsiella ssp. isolate 4, read-out: minimal inhibiting concentration): > 8 µg/mL; MIC (Klebsiella ssp.; Klebsiella ssp. isolate 5, read-out: minimal inhibiting concentration): > 8 µg/mL
NC[C@H]1O[C@H](O[C@H]2[C@H](O)[C@@H](O[C@H]3O[C@H](CO)[C@@H](O)[C@H](N)[C@H]3O)[C@H](N)C[C@@H]2N)[C@H](N)C[C@@H]1O [Tob., Tobramycin] | S | R | S | R | R | I | R | R | R | S | R | R | R | S | R | I | R | I | I | R | MIC (Pseudomonas aeruginosa; read-out: minimal inhibiting concentration, Pseudomonas aeruginosa isolate 1): ≤ 2 µg/mL; MIC (Pseudomonas aeruginosa; read-out: minimal inhibiting concentration, Pseudomonas aeruginosa isolate 2): > 8 µg/mL; MIC (Pseudomonas aeruginosa; read-out: minimal inhibiting concentration, Pseudomonas aeruginosa isolate 3): ≤ 2 µg/mL; MIC (Pseudomonas aeruginosa; read-out: minimal inhibiting concentration, Pseudomonas aeruginosa isolate 4): > 8 µg/mL; MIC (Pseudomonas aeruginosa; read-out: minimal inhibiting concentration, Pseudomonas aeruginosa isolate 5): > 8 µg/mL; MIC (Acinetobacter baumannii; read-out: minimal inhibiting concentration, Acinetobacter baumannii isolate 1): 8 µg/mL (≈ 17.1 µM); MIC (Acinetobacter baumannii; read-out: minimal inhibiting concentration, Acinetobacter baumannii isolate 2): > 8 µg/mL; MIC (Acinetobacter baumannii; read-out: minimal inhibiting concentration, Acinetobacter baumannii isolate 3): > 8 µg/mL; MIC (Acinetobacter baumannii; read-out: minimal inhibiting concentration, Acinetobacter baumannii isolate 4): > 8 µg/mL; MIC (Acinetobacter baumannii; read-out: minimal inhibiting concentration, Acinetobacter baumannii isolate 5): 4 µg/mL (≈ 8.56 µM); MIC (Escherichia coli; read-out: minimal inhibiting concentration, Escherichia coli isolate 1): > 8 µg/mL; MIC (Escherichia coli; read-out: minimal inhibiting concentration, Escherichia coli isolate 2): > 8 µg/mL; MIC (Escherichia coli; read-out: minimal inhibiting concentration, Escherichia coli isolate 3): > 8 µg/mL; MIC (Escherichia coli; read-out: minimal inhibiting concentration, Escherichia coli isolate 4): ≤ 2 µg/mL; MIC (Escherichia coli; read-out: minimal inhibiting concentration, Escherichia coli isolate 5): > 8 µg/mL; MIC (Klebsiella ssp.; read-out: minimal inhibiting concentration, Klebsiella ssp. isolate 1): 8 µg/mL (≈ 17.1 µM); MIC (Klebsiella ssp.; read-out: minimal inhibiting concentration, Klebsiella ssp. isolate 2): > 8 µg/mL; MIC (Klebsiella ssp.; read-out: minimal inhibiting concentration, Klebsiella ssp. isolate 3): 8 µg/mL (≈ 17.1 µM); MIC (Klebsiella ssp.; read-out: minimal inhibiting concentration, Klebsiella ssp. isolate 4): 8 µg/mL (≈ 17.1 µM); MIC (Klebsiella ssp.; read-out: minimal inhibiting concentration, Klebsiella ssp. isolate 5): > 8 µg/mL
Gentamicin [Gent.] | S | S | I | R | R | R | R | R | R | R | R | R | R | S | S | R | R | I | R | R | minimal inhibiting concentration (Pseudomonas aeruginosa; [1]): 4 µg/mL; minimal inhibiting concentration (Pseudomonas aeruginosa; [2]): 4 µg/mL; minimal inhibiting concentration (Pseudomonas aeruginosa; [3]): 8 µg/mL; minimal inhibiting concentration (Pseudomonas aeruginosa; [4]): > 8 µg/mL; minimal inhibiting concentration (Pseudomonas aeruginosa; [5]): > 8 µg/mL; minimal inhibiting concentration (Acinetobacter baumannii; [6]): > 8 µg/mL; minimal inhibiting concentration (Acinetobacter baumannii; [7]): > 8 µg/mL; minimal inhibiting concentration (Acinetobacter baumannii; [8]): > 8 µg/mL; minimal inhibiting concentration (Acinetobacter baumannii; [9]): > 8 µg/mL; minimal inhibiting concentration (Acinetobacter baumannii; [10]): > 8 µg/mL; minimal inhibiting concentration (Escherichia coli; Escherichia coli isolate 1): > 8 µg/mL; minimal inhibiting concentration (Escherichia coli; Escherichia coli isolate 2): > 8 µg/mL; minimal inhibiting concentration (Escherichia coli; Escherichia coli isolate 3): > 8 µg/mL; minimal inhibiting concentration (Escherichia coli; Escherichia coli isolate 4): ≤ 2 µg/mL; minimal inhibiting concentration (Escherichia coli; Escherichia coli isolate 5): ≤ 2 µg/mL; minimal inhibiting concentration (Klebsiella ssp.; Klebsiella ssp. isolate 1): > 8 µg/mL; minimal inhibiting concentration (Klebsiella ssp.; Klebsiella ssp. isolate 2): > 8 µg/mL; minimal inhibiting concentration (Klebsiella ssp.; Klebsiella ssp. isolate 3): 8 µg/mL; minimal inhibiting concentration (Klebsiella ssp.; Klebsiella ssp. isolate 4): > 8 µg/mL; minimal inhibiting concentration (Klebsiella ssp.; Klebsiella ssp. isolate 5): > 8 µg/mL
Trimethoprim-Sulfamethoxazole [TmSm.] | R | R | R | R | R | R | R | R | R | R | R | R | R | R | R | R | S | S | S | R | minimal inhibiting concentration (Pseudomonas aeruginosa; [1]): 2/38; minimal inhibiting concentration (Pseudomonas aeruginosa; [2]): 2/38; minimal inhibiting concentration (Pseudomonas aeruginosa; [3]): 2/38; minimal inhibiting concentration (Pseudomonas aeruginosa; [4]): 2/38; minimal inhibiting concentration (Pseudomonas aeruginosa; [5]): 2/38; minimal inhibiting concentration (Acinetobacter baumannii; [6]): 2/38; minimal inhibiting concentration (Acinetobacter baumannii; [7]): 2/38; minimal inhibiting concentration (Acinetobacter baumannii; [8]): 2/38; minimal inhibiting concentration (Acinetobacter baumannii; [9]): 2/38; minimal inhibiting concentration (Acinetobacter baumannii; [10]): 2/38; minimal inhibiting concentration (Escherichia coli; Escherichia coli isolate 1): 2/38; minimal inhibiting concentration (Escherichia coli; Escherichia coli isolate 2): 2/38; minimal inhibiting concentration (Escherichia coli; Escherichia coli isolate 3): 2/38; minimal inhibiting concentration (Escherichia coli; Escherichia coli isolate 4): 2/38; minimal inhibiting concentration (Escherichia coli; Escherichia coli isolate 5): 2/38; minimal inhibiting concentration (Klebsiella ssp.; Klebsiella ssp. isolate 1): 2/38; minimal inhibiting concentration (Klebsiella ssp.; Klebsiella ssp. isolate 5): 2/38
